Assay results from paper PMC5181585, “UMAMIT14 is an amino acid exporter involved in phloem unloading in Arabidopsis roots” (Journal of Experimental Botany, 2016).

Biological target: T1, UMAMIT18 (Arabidopsis thaliana, UniProt Q9LPF1)
T1 construct: gene At1g44800; cDNA in pDR196-Ws, expressed in yeast 22delta10alpha
T1 sequence (Q9LPF1 1-370): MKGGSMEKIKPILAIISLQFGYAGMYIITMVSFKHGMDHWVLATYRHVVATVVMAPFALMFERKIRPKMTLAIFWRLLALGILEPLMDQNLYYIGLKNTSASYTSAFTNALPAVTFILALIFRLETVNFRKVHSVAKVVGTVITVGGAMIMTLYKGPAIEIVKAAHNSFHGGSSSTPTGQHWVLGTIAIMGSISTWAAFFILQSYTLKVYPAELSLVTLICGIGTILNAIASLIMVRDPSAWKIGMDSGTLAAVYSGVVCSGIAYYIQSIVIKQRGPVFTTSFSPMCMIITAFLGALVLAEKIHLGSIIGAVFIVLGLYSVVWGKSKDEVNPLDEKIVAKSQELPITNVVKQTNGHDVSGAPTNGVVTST
Experiment: amino acid secretion into medium by yeast, UPLC
Type: cell-based
Conditions: export, 22 h growth in minimal medium, yeast 22delta10alpha

Row | Structure (SMILES) | amino acid secretion into medium by yeast, UPLC (Gln peak not resolved from Arg) | amino acid secretion into medium by yeast, UPLC
1 | NC(=O)CC[C@H](N)C(=O)O [Gln] | Gln, Val, and Ile represented a larger proportion of the secreted amino acids for UMAMIT18 | –
2 | CC(C)[C@H](N)C(=O)O [Val] | – | Gln, Val, and Ile represented a larger proportion of the secreted amino acids for UMAMIT18
